# pIC50: −log10 of the molar value.
# Test system: T1, IRAK1/4 human
# T1 construct: fused on or other part: His tag and TEV cleavage site at the N-terminus
# Test: IRAK1/4 phosphorylation IC50 (enzymatic assay, table 2)
# Type: biochemical
# Conditions: human IRAK1/4 phosphorylation
# Procedure, shortened: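 Human IRAK-1 or IRAK-4, each carrying a His-TEV tag, was incubated with ATP and compounds in DMSO ranging from 20 µM to 1 nM in 384-well plates, and IRAK-4 reactions also contained STK1-biotin peptide. Reactions ran in 50 mM Hepes pH7.0 with MgCl2, DTT, EGTA and BSA for 2 or 3 hours, with 2% DMSO controls. Inhibition is given as IC50.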
row,pIC50,Compound
1,6.00 to 7.00,O=C(c1ccc(-n2cc(-c3n[nH]c4cc(Br)ccc34)nn2)cc1)N1CCOCC1 [Example 208]
2,5.30 to 6.00,Cn1cc(-c2ccc3c(-c4cn(-c5ccc(C(=O)N6CCOCC6)cc5)nn4)n[nH]c3c2)cn1 [Example 209]
3,6.00 to 7.00,CN1CCC(c2ccc(-n3cc(-c4n[nH]c5ccccc45)nn3)cc2)CC1 [Example 211]
4,6.00 to 7.00,COC/C=C/c1ccc2c(-c3cn(-c4ccc(C(=O)N5CCOCC5)cc4)nn3)n[nH]c2c1 [Example 212]
5,5.30 to 6.00,COCC#Cc1ccc2c(-c3cn(-c4ccc(C(=O)N5CCOCC5)cc4)nn3)n[nH]c2c1 [Example 213]
6,6.00 to 7.00,O=C(c1ccc(-n2cc(-c3n[nH]c4cc(-c5ccncc5)ccc34)nn2)cc1)N1CCOCC1 [Example 214]
7,5.30 to 6.00,O=C(c1ccc(-n2cc(-c3n[nH]c4cc(C#CCCO)ccc34)nn2)cc1)N1CCOCC1 [Example 215]
8,6.00 to 7.00,O=C(c1ccc(-n2cc(-c3n[nH]c4cc(CCCCO)ccc34)nn2)cc1)N1CCOCC1 [Example 216]
9,6.00 to 7.00,O=C(c1ccc(-n2cc(-c3n[nH]c4cc(C5=CCOCC5)ccc34)nn2)cc1)N1CCOCC1 [Example 217]
10,5.30 to 6.00,CCC(O)CCc1ccc2c(-c3cn(-c4ccc(C(=O)N5CCOCC5)cc4)nn3)n[nH]c2c1 (stereo not drawn) [Example 218]
11,5.30 to 6.00,NCC#Cc1ccc2c(-c3cn(-c4ccc(C(=O)N5CCOCC5)cc4)nn3)n[nH]c2c1 [Example 219]
12,6.00 to 7.00,COCCCc1ccc2c(-c3cn(-c4ccc(C(=O)N5CCOCC5)cc4)nn3)n[nH]c2c1 [Example 220]
13,6.00 to 7.00,C#Cc1ccc2c(-c3cn(-c4ccc(C(=O)N5CCOCC5)cc4)nn3)n[nH]c2c1 [Example 221]
14,6.00 to 7.00,O=C(c1ccc(-n2cc(-c3n[nH]c4ccc(NC5CCCOC5)cc34)nn2)cc1)N1CCOCC1 (stereo not drawn) [Example 222]
15,> 7.00,CN1CCC(Nc2ccc3[nH]nc(-c4cn(-c5ccc(C(=O)N6CCOCC6)cc5)nn4)c3c2)CC1 [Example 223]
16,6.00 to 7.00,O=C(NC1CCOCC1)c1ccc2[nH]nc(-c3cn(-c4ccc(CN5CCOCC5)cc4)nn3)c2c1 [Example 228]
17,> 7.00,O=C(NCc1cccc(O)c1)c1ccc2[nH]nc(-c3cn(-c4ccc(CN5CCOCC5)cc4)nn3)c2c1 [Example 230]
18,6.00 to 7.00,O=C(NC1CCC(O)CC1)c1ccc2[nH]nc(-c3cn(-c4ccc(CN5CCOCC5)cc4)nn3)c2c1 (stereo not drawn) [Example 231]
19,5.30 to 6.00,CC(C)c1ccc(-n2cc(-c3n[nH]c4ccccc34)nn2)cc1 [Example 232]
20,6.00 to 7.00,NC(=O)COc1ccc2c(-c3cn(-c4ccc(C(=O)N5CCOCC5)cc4)nn3)n[nH]c2c1 [Example 233]
21,5.30 to 6.00,COCCOc1ccc2c(-c3cn(-c4ccc(C(=O)N5CCOCC5)cc4)nn3)n[nH]c2c1 [Example 234]
22,6.00 to 7.00,O=C(c1ccc(-n2cc(-c3n[nH]c4cc(O)ccc34)nn2)cc1)N1CCOCC1 [Example 235]
23,6.00 to 7.00,O=C(c1ccc2[nH]nc(-c3cn(-c4ccc(CN5CCOCC5)cc4)nn3)c2c1)N1CCC(c2ccncc2)CC1 [Example 236]
24,6.00 to 7.00,CN(C)C1CCN(C(=O)c2ccc3[nH]nc(-c4cn(-c5ccc(CN6CCOCC6)cc5)nn4)c3c2)CC1 [Example 237]
25,6.00 to 7.00,c1ccc2c(-c3cn(-c4ccc(C5CCN(CC6CCCO6)CC5)cc4)nn3)n[nH]c2c1 (stereo not drawn) [Example 239]
26,> 7.00,O=C(c1ccc(-n2cc(-c3n[nH]c4cc(/C=C/CO)ccc34)nn2)cc1)N1CCOCC1 [Example 240]
27,6.00 to 7.00,CN(C)S(=O)(=O)c1ccc(-n2cc(-c3n[nH]c4ccccc34)nn2)cc1 [Example 241]

row,Compound,pIC50
1,CN1C2CCC1CC(n1cc(-n3cc(-c4n[nH]c5ccc(F)cc45)nn3)cn1)C2 (stereo not drawn) [Example 226],6.00 to 7.00
2,CN1C2CCC1CC(n1cc(-n3cc(-c4n[nH]c5ccc(Cl)cc45)nn3)cn1)C2 (stereo not drawn) [Example 227],6.00 to 7.00
3,CN1C2CCC1CC(n1cc(-n3cc(-c4n[nH]c5cc(F)ccc45)nn3)cn1)C2 (stereo not drawn) [Example 229],> 7.00
